In a melting point compilation (Tetko et al.; mined from patent text by program, amines drawn as free bases though some values may be those of a salt) one finds melting point data, which are given here for 88 compounds.

For orientation: melting point means the temperature, or range, at which the solid turns liquid.

For the compound `CN(C)S(=O)(=O)c1ccc(N)cc1C(F)(F)F`, the melting point fell in the range of 140 to 142 °C.
In the case of `CCOC(=O)c1nnn(-c2ccccc2)c1N`, the melting point was in the range of 124 to 126 °C.
`CCN1CC(=O)N(c2cc(Cl)ccc2C)C1=S` had a melting point of 152 to 154 °C.
In the case of `COc1ccc(-c2ccncc2)cc1-c1cccc(Oc2ccccc2)c1`, the melting point fell in the range of 184 to 204 °C.
The compound `CCOC(=O)C(C#N)=CNc1ccc(C)cn1` came in with a melting point of 170 to 172 °C.
For `Cc1ncn(-c2ccc(C=O)cc2)n1`, the melting point is 125 to 128 °C.
`O=C(O)COc1ccc(SCc2ccc(OCc3ccc(F)cc3C(F)(F)F)cc2)c2c1CCC2` came in with a melting point of 125 to 127 °C.
In the case of `COc1cccc(CN[C@@H](C)C2CCCCC2)c1O` it was 65 to 66 °C; in that of `O=C(O)CCc1[nH]nc2c1CCCCC2`, 102 to 105 °C; in that of `CCN1C(=O)C(C(=O)Nc2ccc(F)cc2)c2cc3c(cc21)CC(C)O3` (stereo not drawn), 196 to 197 °C.
In the case of `COc1cc(/C=C/C(=O)CC(=O)Cc2ccccc2)ccc1O` it was 106 °C; in that of `COc1ccc(C(=O)N(C)C)c(-c2ccccc2)c1OC`, 101 to 102 °C; in that of `N=C(NO)c1ccc(Cl)nc1`, 185 to 186 °C.
For `CN1CCN(c2nc3sc4c(NCCc5ccccn5)ncnc4c3c3c2COC(C)(C)C3)CC1`, the melting point lay in the range of 227 to 229 °C.
Compound `CCN1CCN2C(=O)c3ccccc3C12c1ccccc1` (stereo not drawn) had a melting point of 122 to 124 °C.
For the compound `c1cn2cnnc2c2cc3c(cc12)OCO3`, the melting point fell in the range of 267 to 269 °C.
`CCc1ccc(NC(=O)Nc2ccc(Oc3ccnc(OC)c3)cc2)cc1` displayed a melting point of 196 °C.
The compound `CCCCc1nc2c(N)nc3ccc(OCc4ccccc4)cc3c2n1CCCCNS(C)(=O)=O` showed a melting point of 178 to 182 °C.
As to `O=C(CC(CC(=O)c1ccc(F)cc1)c1cccc(-c2nnn[nH]2)c1)c1ccc(F)cc1`, the melting point came out at 162 °C.
For `Cn1nc(-c2c(F)cccc2Cl)nc1-c1ccc(COc2ccc(C(F)(F)F)cc2Cl)c(Cl)c1`, the melting point is 113 to 114 °C.
`O=C1N(Cc2ccc(Cl)o2)c2ccccc2C12COc1cc3c(cc12)OCO3` (stereo not drawn) gave a melting point of 148 to 150 °C.
As to `Clc1ccccc1C1=NN=C(c2ccccc2Cl)C(c2ccccc2)C1` (stereo not drawn), the melting point was 151 to 153 °C.
Compound `Cc1c(C(=O)CS(=O)Cc2ccc(Cl)cc2)sc2ccc(Cl)cc12` (stereo not drawn) showed a melting point of 168 to 170 °C.
As to `N#Cc1ccc(C=C2CCCC2)s1`, the melting point was 98 to 100 °C.
The compound `COC(=O)C1=C(C)Nc2ccccc2NC1c1cccc(Cl)c1Cl` (stereo not drawn) came in with a melting point of 181 to 182 °C.
In turn, `CCCCNS(=O)(=O)CC(O)C(O)C(CC1CCCCC1)NC(=O)C(CC)Cc1c[nH]cn1` (stereo not drawn) registered a melting point of 60 to 90 °C.
For `COC(=O)[C@H](Cc1ccc(O)c(C2SCCS2)c1)NC(C)=O`, the melting point is 97 to 99 °C.
In the case of `CS(=O)(=O)CCN1C(=O)CN=C(c2ccccc2F)c2cc(Cl)ccc21` it was 155 to 156 °C; in that of `COc1ccc([N+](=O)[O-])cc1OCCO`, 115 °C.
`COc1ccnc(-c2ccccc2S(=O)c2nc3cc(N)ccc3[nH]2)c1` (stereo not drawn): the melting point was in the range of 192 to 193 °C.
Consider `COc1cc2c(cc1Nc1ncc(Cl)c(Nc3cccc(OCC#N)c3)n1)CCOC(=O)N2C`, for which the melting point was 227 to 229 °C.
Consider `CCOC(=O)C(C)(C)Oc1ccc(-c2ccc(CC(=O)Nc3cc(Cl)ccc3OC)cc2)cc1`, for which the melting point was < 20 °C.
In the case of `CS(=O)(=O)c1ccc(N2CC(O)(C(F)(F)F)N=C2c2ccccn2)cc1` (stereo not drawn) it was 195 to 198 °C.
Regarding `O=CC(=Cc1ccc(OCc2ccccc2)cc1)C(C=O)=Cc1ccc(OCc2ccccc2)cc1`, the melting point is 119 to 120 °C.
`Cc1c(-c2ccc(O)c(F)c2)sc(C=O)c1-c1ccc(O)cc1` gave a melting point of 227 to 229 °C.
In the case of `COc1ccc(C(=O)Nc2ccccc2)cc1Nc1cccc(C)c1` it was 160 to 161 °C; in that of `CC(=O)CC(=O)N[C@H](CF)[C@H](O)c1ccc(S(C)(=O)=O)cc1`, 139 to 141 °C; in that of `Cc1nc(NCCCO)c([N+](=O)[O-])c(N2CCc3ccccc3CC2)n1`, 104 to 108 °C.
For `CCCn1c(=O)c(C#N)c(Cl)c2ccccc21`, the melting point fell in the range of 203 to 205 °C.
`O=C1NC(=O)C(Cc2ccc(OC3=C(Cl)C(=O)c4ccccc4C3=O)cc2)S1` (stereo not drawn) came in with a melting point of 250 to 252 °C.
Compound `C#CCn1c(C(F)(F)F)c(CO)oc1=O` registered a melting point of 64 °C.
For `CCC(=O)N[C@@H](C)C(=O)N[C@@H](C)C(=O)NC1CCCCC1`, the melting point lay within 299 to 300 °C.
In the case of `CCOC(=O)c1ccc2nc(NC(C)=O)n(S(=O)(=O)N(C)C)c2c1`, the melting point was 155 to 157 °C.
With `CCOC(=O)CN(C)S(=O)(=O)c1c(C(=O)OC)sc2cc(C)ccc12`, the melting point is 86 to 87 °C.
Compound `CC(C)C(=O)Nc1ccc(OCc2ccccc2)c(Br)c1N(C)C` came in with a melting point of 197 to 198 °C.
For `CC1CN(Cn2cc(C#N)c(-c3cccc(Cl)c3Cl)c2)CC(C)O1` (stereo not drawn), the melting point was 91 to 97 °C.
In the case of `O=C(COC1CCCCO1)c1ccc(Cl)cc1` (stereo not drawn) it was 57 °C; in that of `CCCc1nn(-c2ccc(C(F)(F)F)cn2)cc1/C=C/C(=O)OCC`, 104 to 105 °C; in that of `Cc1cc(C(=O)O)cc2c3ccccc3n(Cc3ccccc3)c12`, > 240 °C.
In the case of `O=C1NCCc2ccccc2N1OCCCCN1CCN(c2cccc(C3CC3)n2)CC1` it was 155 to 156 °C; in that of `CCC(CC)CNC(=O)c1ccc2cccc(Cc3ccc(C(=O)NS(=O)(=O)c4ccccc4)cc3OC)c2c1`, 210 to 211 °C.
In the case of `Fc1cccc(F)c1-c1cnc(-c2ccc(Br)cc2)nn1`, the melting point lay in the range of 167 to 169 °C.
`O=C(c1ccc2c(c1)OCCO2)c1ccc2noc(-c3cccc(Cl)c3)c2c1` returned a melting point of 195 °C.
In the case of `Cc1nc2c(c(=O)[nH]1)-c1cc(S(=O)(=O)Nc3ccc(F)cc3)ccc1CC2` it was > 260 °C.
For `CCOC(CSc1ccc2c(c1)CCN2C(C)=O)OCC`, the melting point is < 52 °C.
Compound `O=C(C=Cc1ccc(F)cc1)C(=O)Nc1ccc(C(F)(F)F)cc1` returned a melting point of 200 to 201 °C.
Take `CC(C)N(C(=O)CC=C1CSC(N)=N1)c1ccc(Cl)cc1`: the melting point lay within 145 to 147 °C.
Take `O=[N+]([O-])C=C1CN=C(c2ccccc2)c2cc(Cl)sc2N1`: the melting point was 154 to 156 °C.
The compound `CC(C)CC(=O)NCc1ccc(NC(=O)/C=C/c2cnn(C)c2-c2ccc(F)cc2)cc1` had a melting point of 226 to 227 °C.
`Cc1cccc(C(=O)c2[nH]c3ccc(Cl)cc3c2CC(=O)O)n1` showed a melting point of 225 to 226 °C.
`COC(=O)C(C)(C)OCc1nn(Cc2ccccc2)c2ccccc12`: the melting point was in the range of 66 to 67 °C.
As to `O=C(Nc1ccc(Cl)c(C(F)(F)F)c1)c1ccccc1`, the melting point was 130 to 131 °C.
In the case of `Cc1cc(C#N)sc1-c1ccc2c(c1)C(C)(C)OC(=S)N2` it was 211 to 212 °C; in that of `CN1CCN(C(=O)OC2c3ccccc3C(=O)N2c2ccc3ccc(C#N)nc3n2)CC1` (stereo not drawn), 266 to 268 °C.
In the case of `CCCC1=C(C#N)C(c2ccccc2Br)c2c[nH]nc2N1` (stereo not drawn) it was 237 °C; in that of `N#Cc1cc(-c2ccccc2)c(C(=O)O)cn1`, 270 to 272 °C; in that of `Cc1cc(-c2ncn3c(C(F)(F)F)cc(-c4ccc(C(F)(F)F)c(C(F)(F)F)c4)nc23)ccn1`, 218 °C.
In the case of `Cc1ccc(COc2ncc(F)c(NS(C)(=O)=O)n2)cc1` it was 145 to 148 °C.
With `CC(C)c1nc(CCCOCc2ccccc2)[nH]c1Sc1cc(Cl)cc(Cl)c1`, the melting point was in the range of 118 to 119 °C.
Turning to `O=C(Nc1ccc([N+](=O)[O-])cc1)N1CC=CCC1`, the melting point is 169 to 170 °C.
In turn, `Cc1cc(C)c2c(c1)OCC2=O` registered a melting point of 55 to 60 °C.
The compound `CC(O)Cn1cc(-c2ccccc2)c2ccccc2c1=O` (stereo not drawn) yielded a melting point of 162 °C.
`Cc1cc(=O)c(C(=O)Nc2ccccc2Cl)c(C)o1` gave a melting point of 206 to 207 °C.
With `CSC1CCC(=O)C(C(=O)c2ccc(S(C)(=O)=O)cc2Cl)C1=O` (stereo not drawn), the melting point lay within 146 to 149 °C.
In the case of `COc1cc(Cc2cnc(N)nc2N)cc2c1OC(C)(C)C=C2c1cccs1` it was > 260 °C.
On to `CCOC(=O)c1c(CN2C(=O)CN(C)C2=O)nc2sc3c(c2c1-c1ccc(OC)c(OC)c1)CCN(C(=O)c1ccccc1)C3`, for which the melting point lay within 185 to 187 °C.
In the case of `CCCCCCCNC(=O)N(C)c1cccc(-c2ccc(C=C(OCC)C(=O)O)cc2OCCCC)c1` it was 103 °C; in that of `CCOC(=O)C1(NS(=O)(=O)c2ccc(F)cc2)CCCCC1`, 96 to 98 °C.
Regarding `O=C1CCCN1c1c([N+](=O)[O-])cc(C(F)(F)F)c(Cl)c1[N+](=O)[O-]`, the melting point lay within 121 to 122 °C.
In the case of `O=C(O)CCCc1cc2nc(Cl)ccc2n1S(=O)(=O)c1ccc(Cl)cc1` it was 174 °C; in that of `CC(C)c1ccc(-c2c(Cl)c(CN3C(=O)CCC3=O)nc3sc4c(c23)CCN(Cc2ccccc2)C4)cc1`, 201 to 202 °C; in that of `CN(C)CCc1nnc2n1-c1ccc(Cl)cc1C(c1ccccc1)NC2` (stereo not drawn), 131 to 137 °C.
`C[C@]1(CN2CCN(C(=O)OCc3cc(Cl)cc(Cl)c3)CC2)Cn2cc([N+](=O)[O-])nc2O1` displayed a melting point of 129 to 130 °C.
In the case of `CCOC(=O)c1cc2c(OC)cc3c(c2n1Cc1ccccc1)CCCC3` it was 86 to 88 °C.
As to `CC(C)(C)OC(=O)Nc1ccc(C#Cc2ccc(OC(F)(F)F)cc2)cc1[N+](=O)[O-]`, the melting point fell in the range of 129 to 131 °C.
The compound `O=C1C(O)OCN1c1cccc(C(F)(F)F)c1` (stereo not drawn) displayed a melting point of 75 to 76 °C.
In turn, `Fc1ccc(CC(=S)N2CCCCC2)cc1` came in with a melting point of 65.5 to 67.5 °C.
For `CC(C)(C)OC(=O)C[C@H](NC(=O)CNC(=O)CC1(c2ccc(C(N)=S)cc2)OCCO1)C(=O)N[C@@H](Cc1ccccc1)C(=O)OC(C)(C)C`, the melting point lay in the range of 96 to 98 °C.
